Measurements published in PMC10507113, “Function and phylogeny support the independent evolution of an ASIC-like Deg/ENaC channel in the Placozoa” (Communications Biology, 2023).

What was measured:
TadNaC2 = target: T1, TadNaC2 (Trichoplax adhaerens, UniProt A0A5J6BSS6); experiment: whole-cell patch clamp, CHO-K1, amiloride dose-response of peak inward current; type: cell-based
T1 construct: gene ASIC2; full-length cDNA cloned from whole-animal RNA, untagged in pIRES2-EGFP (pTadNaC2-IR-EGFP), CHO-K1 cells; homotrimer modelled; residues F70, T72, D75, E77, H80, E104, E105, H109, W165, F188, L198, R201, K203, S228, P229, W276, L332, S336, D413
T1 sequence (A0A5J6BSS6 1-548): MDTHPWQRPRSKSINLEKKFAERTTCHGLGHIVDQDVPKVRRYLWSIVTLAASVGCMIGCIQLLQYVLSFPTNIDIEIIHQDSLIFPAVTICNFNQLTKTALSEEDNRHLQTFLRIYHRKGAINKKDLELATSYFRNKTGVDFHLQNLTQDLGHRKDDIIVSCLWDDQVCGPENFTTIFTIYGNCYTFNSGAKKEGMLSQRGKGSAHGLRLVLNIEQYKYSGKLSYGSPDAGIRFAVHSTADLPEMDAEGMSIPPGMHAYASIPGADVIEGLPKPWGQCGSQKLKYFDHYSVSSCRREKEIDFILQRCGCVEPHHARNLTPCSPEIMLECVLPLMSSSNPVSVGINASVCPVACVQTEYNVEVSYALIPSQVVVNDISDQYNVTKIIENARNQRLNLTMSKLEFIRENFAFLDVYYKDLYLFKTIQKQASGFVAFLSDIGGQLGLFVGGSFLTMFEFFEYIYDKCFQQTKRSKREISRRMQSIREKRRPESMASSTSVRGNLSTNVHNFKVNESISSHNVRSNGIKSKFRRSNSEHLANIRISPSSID

mouse ASIC1a (mASIC1a) = target: T2, mouse ASIC1a (mASIC1a) (Mus musculus, UniProt Q6NXK8); experiment: whole-cell patch clamp, CHO-K1, single-dose block of peak inward current; type: cell-based; conditions: read-out: % block at 3 mM
T2 construct: gene Asic1; synthetic full-length subunit, untagged in pIRES2-EGFP (pmASIC1-IR-EGFP), CHO-K1 cells; homotrimer
T2 sequence (Q6NXK8 1-526): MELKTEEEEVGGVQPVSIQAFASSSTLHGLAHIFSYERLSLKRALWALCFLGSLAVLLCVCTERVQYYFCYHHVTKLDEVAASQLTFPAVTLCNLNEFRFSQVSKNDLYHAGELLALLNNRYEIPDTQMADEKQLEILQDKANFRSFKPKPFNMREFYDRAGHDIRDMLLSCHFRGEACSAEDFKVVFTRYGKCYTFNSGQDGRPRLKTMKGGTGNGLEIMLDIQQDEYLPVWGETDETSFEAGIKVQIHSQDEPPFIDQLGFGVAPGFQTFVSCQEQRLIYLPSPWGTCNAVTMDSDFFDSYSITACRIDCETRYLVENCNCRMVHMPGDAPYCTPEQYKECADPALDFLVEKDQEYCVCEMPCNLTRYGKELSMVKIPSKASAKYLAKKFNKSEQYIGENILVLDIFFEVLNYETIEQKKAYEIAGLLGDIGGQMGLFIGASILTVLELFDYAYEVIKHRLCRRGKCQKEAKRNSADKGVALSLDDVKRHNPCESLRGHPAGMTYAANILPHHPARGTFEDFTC

Compound: N=C(N)NC(=O)c1nc(Cl)c(N)nc1N [amiloride]
- IC50 (TadNaC2): 52 ± 29.6 µM
- inhibition at 3000 µM (mouse ASIC1a (mASIC1a)): 73 ± 4.1%
